Results as given in US12350308B2, “Phosphorylcholine conjugates and uses thereof” (TPCERA LTD., priority 2013, dated 2025).
*1 amine or outer side, *2 acyl side, *3 side chain or, on linkers, in order; H or OH if unused. Where a SMILES comes first, the peptide text is derived from it. [ ]: non-standard residue; d: D form. X1 = C[N+](C)(C)CCOP(=O)([O-])Oc1ccc(N=Nc2cc(C[C@H](N[*:1])C(=O)[*:2])ccc2O)cc1

Tests used:
male C57BL/6 mice = test: DSS induced acute colitis in mice; format: in vivo
Protocol: The effect of PC-tuftsin derivative (SEQ ID NO: 25) on colitis development was determined in a mouse model subjected to induction of acute colitis by dextran sulfate sodium (DSS) treatment. Specifically, induction of colitis was carried out in male C57BL/6 mice (“colitis mice”) by supplementing the drinking water (2.5% wt/v) for five days with DSS (mol. wt. 36,000-50,000).
Two groups of mice were fed daily via oral ingestion using a feeding-needle, with PC-tuftsin derivative at a concentration of 500 μg/0.1 ml per mouse (treatment; n=10), or PBS (control; n=10). These compounds were given during 11 days starting two days before DSS administration.
Assessment of colitis development was performed by monitoring body weight, rectal bleeding, stool consistency, and survival every second day. Intestinal bleeding was followed by Hemoccult test and observation of bleeding signs on the anus or gross bleeding. The daily disease activity index (DAI) was calculated by grading on a scale of zero to four the following parameters: change in weight (0, <1%; 1, 1-5%; 2, 5-10%; 3, 10— 15%; and 4, >15%), intestinal bleeding (0, negative; 4, positive), and stool consistency (0, normal; 2, loose stools; 4, diarrhea). The combined scores were then divided by three to obtain the final disease activity index. Ten days following disease induction, mice were sacrificed and the large intestine was collected and evaluated for colon length and microscopic colonic damage. For microscopic scoring, the proximal, medial, and distal portions of the colon and the cecum were fixed in 10% phosphate-buffered formalin. Paraffin-embedded sections were stained with H&E. The degree of histological damage and inflammation was graded in a blinded fashion by an expert pathologist

colon lysates = test: Cytokine expression in colon lysates of colitis mice (immunoblot); format: in vivo
Protocol: The expression of the proinflammatory cytokines (TNFα, IL-17, IL-113) and anti-inflammatory cytokine IL-10 was analyzed by immunoblot in colon lysates.

CD4+CD25+FOXP3+ Tregs = test: Treg expansion in spleen cells of lupus mice treated with TD-PC (FACS); format: in vivo; details: gating on CD4+ T cells; PBS 4%
Description: The percentage of CD4+CD25+FOXP3+ Tregs phenotype subset in spleen cells following treatment with TD-PC, tuftsin derivative (SEQ ID NO: 25), PC or PBS, is elucidated in FIGS. 25A-25B.

CIA mice = test: Arthritis score in CIA mice treated orally or s.c. with TD-PC; format: in vivo; details: day 31
Description: The main characteristic of rheumatoid arthritis is joint deformation due to high inflammation. The TD-PC effect on arthritis score in CIA mice was monitored. […] Arthritis score was lower in both groups of TD-PC treatment (oral and s.c.) starting two weeks after disease induction—day 14, until the mice were sacrificed—day 31.

[1] = system: splenocytes derived from CIA mice; test: Cytokine secretion in-vitro by splenocytes of CIA mice (oral and s.c. TD-PC); format: in vivo; details: splenocyte culture fluids
Protocol: Cytokines play a major role in synovial inflammation while the major ones are IL-17, TNFα and IL-1. Secretion of pro-inflammatory (TNFα, IL-1β, IL-17) and anti-inflammatory cytokines (IL-10) by splenocytes derived from CIA mice treated with TD-PC or PBS (control), in-vitro, was evaluated.
Furthermore, TD-PC increased the level of anti-inflammatory cytokine IL-10 in a significant manner compared to control mice (p<0.0001; FIG. 28D and Table 3).

[2] = system: CD4+CD25+FOXP3+ Treg cells; test: Treg expansion in splenocytes of mice with established CIA (FACS); format: in vivo; details: isolated splenocytes; PBS 1.4%
Description: The frequency of CD4+CD25+FOXP3+ Treg cells subset in isolated splenocytes from mice treated with TPC, PBS, TD (SEQ ID NO: 25), PC, TD+PC or untreated is elucidated in FIGS. 33A and 33B. […] Representative data of the CD4+CD25+FOXP3+ levels in splenocytes derived from TD-PC, PBS, TD (SEQ ID NO: 25), PC and TD+PC treated mice and the untreated group, gating on CD4+ T cells are presented in FIG. 33B.

THP-1 cells = test: Shift of M1 polarized macrophages to M2 macrophages secreting IL-10; format: cell-based, human; details: 5 μg/ml for 72 hrs; in comparison to OVA-PC
Protocol: The relative expression of the anti-inflammatory cytokine IL-10 was analyzed in human macrophages treated with TD-PC (TD-PC), and PC-Ovalbumin (OVA-PC). Specifically, THP-1 cells (a monocytic cell line established from human monocytic leukemia) were induced to differentiation into adherent macrophage-like phenotype (M0) by culturing the cells (10^5 cells/ml) in the presence of phorbol 12-myristate 13-acetate (PMA; 80 nM) and VD3 (100 nM). For inducing differentiation from M0 to M1 (M1 polarized macrophages) the cells were further incubated with LPS (1 μg/ml), IFNγ (20 ng/ml). For shifting from M1 to M2 macrophages (M2 polarized macrophages) the cells were washed and further incubated with IL-4 (10 ng/ml) and IL-13 (10 ng/ml) for 72 hours.
In order to determine whether TD-PC, TD, PC or PC-OVA can induce a shift form M1 cells to M2 macrophages secreting anti-inflammatory cytokine IL-10, M1 polarized macrophages were incubated with each molecule or conjugate at 5 μg/ml for 72 hrs.

[3] = 500 μg/0.1 ml oral daily, vs PBS

`C[C@@H](O)[C@H](N)C(=O)N[C@@H](CCCCN)C(=O)N1CCC[C@H]1C(=O)N[C@@H](CCCNC(=N)N)C(=O)NCC(=O)N[C@@H](Cc1ccc(O)c(N=Nc2ccc(OP(=O)([O-])OCC[N+](C)(C)C)cc2)c1)C(=O)O` [TD-PC, Thr-Lys-Pro-Arg-Gly-Tyr-PC] (H-TKPRG[X1]-OH) was tested, and the “daily disease activity index (DAI) score” value (male C57BL/6 mice; 500 μg/0.1 ml oral daily, day 8, PBS 2.6 after 5 days) was “around 0.9”, the loss of weight (male C57BL/6 mice; [3]) was “significantly low” and the rectal bleeding (male C57BL/6 mice; [3]) was “significantly low”. The survival (male C57BL/6 mice; [3]) was “significantly higher survival”, the colon length (male C57BL/6 mice; PBS mice five-six cm) was “eight” and the “histological analysis of colon sections (H&E)” value (male C57BL/6 mice; vs PBS) was “attenuated colon destruction”. The “IL-1β expression in colon lysates” value (colon lysates) was “suppressed”, the “IL-10 expression in colon lysates” value (colon lysates) was “Significant increased” and the “IL-17 expression in colon lysates” value (colon lysates) was “suppressed”. For the same compound, the “TNFα expression in colon lysates” value (colon lysates) was “suppressed”, the “CD4+CD25+FOXP3+ Tregs in spleen cells” value (CD4+CD25+FOXP3+ Tregs) was 18% and the mean arthritis score (CIA mice; TD-PC treated groups (oral and s.c.), control 11.8) was 1.5 (ranged from 0 to 4). It also gave a mean arthritis score (CIA mice; oral, PBS oral 12.6±1.14) of 1.6±1.5, a mean arthritis score (CIA mice; s.c., PBS s.c 11±1.22) of 1.4±0.84 and an IL-1β ([1]; oral) of 183 pg/mL. The IL-10 ([1]; oral) was 3605 pg/mL, the IL-17 ([1]; oral) was 505 pg/mL and the TNFα ([1]; oral) was 633 pg/mL. It also gave an IL-1β ([1]; s.c.) of 198 pg/mL, an IL-10 ([1]; s.c.) of 2917 pg/mL and an IL-17 ([1]; s.c.) of 497 pg/mL. The TNFα ([1]; s.c.) was 621 pg/mL, the “mean percentage of CD4+CD25+FOXP3+ Treg cells” value [2] was 8.75% and the “shift of M1 macrophages to M2 macrophages secreting IL-10” value (THP-1 cells) was “significant shift”.
